From paper doi:10.1101/2023.11.24.568596v1 (biorxiv, 2023)
Each block holds one molecule with its values, some of them ahead of it.

Columns and labels:
Details in all cases: binder
[1] = biological target: T1, BMPR2 (Homo sapiens, UniProt Q13873)
T1 sequence (Q13873 1-1038): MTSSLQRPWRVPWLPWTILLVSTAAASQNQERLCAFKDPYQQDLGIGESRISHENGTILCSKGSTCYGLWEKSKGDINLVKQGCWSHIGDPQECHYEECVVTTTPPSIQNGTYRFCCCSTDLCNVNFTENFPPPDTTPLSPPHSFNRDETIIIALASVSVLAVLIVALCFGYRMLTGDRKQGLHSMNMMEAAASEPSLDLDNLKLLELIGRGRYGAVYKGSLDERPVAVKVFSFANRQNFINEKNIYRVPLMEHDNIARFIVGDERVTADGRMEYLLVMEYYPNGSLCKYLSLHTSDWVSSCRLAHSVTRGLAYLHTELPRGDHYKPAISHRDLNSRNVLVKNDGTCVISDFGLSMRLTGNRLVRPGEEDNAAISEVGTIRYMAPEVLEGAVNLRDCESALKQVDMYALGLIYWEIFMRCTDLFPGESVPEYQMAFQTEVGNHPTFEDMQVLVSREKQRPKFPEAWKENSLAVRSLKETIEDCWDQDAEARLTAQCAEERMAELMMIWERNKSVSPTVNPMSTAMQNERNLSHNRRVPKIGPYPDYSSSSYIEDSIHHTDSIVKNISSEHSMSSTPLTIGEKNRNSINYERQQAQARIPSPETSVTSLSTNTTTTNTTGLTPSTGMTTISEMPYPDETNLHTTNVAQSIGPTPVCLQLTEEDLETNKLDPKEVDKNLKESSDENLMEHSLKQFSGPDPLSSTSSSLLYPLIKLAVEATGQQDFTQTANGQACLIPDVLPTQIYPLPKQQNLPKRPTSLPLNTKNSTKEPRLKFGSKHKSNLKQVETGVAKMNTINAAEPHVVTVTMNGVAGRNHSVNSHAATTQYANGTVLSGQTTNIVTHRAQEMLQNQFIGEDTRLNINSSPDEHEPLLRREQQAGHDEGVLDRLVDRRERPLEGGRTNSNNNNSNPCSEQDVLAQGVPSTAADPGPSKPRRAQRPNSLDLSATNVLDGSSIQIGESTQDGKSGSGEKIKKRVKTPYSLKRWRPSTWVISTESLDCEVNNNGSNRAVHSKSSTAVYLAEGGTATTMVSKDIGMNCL

[2] = biological target: CaMKK2 (Homo sapiens, UniProt Q96RR4)
[3] = biological target: T2, Erk7 (Homo sapiens, UniProt Q8TD08)
T2 sequence (Q8TD08 1-544): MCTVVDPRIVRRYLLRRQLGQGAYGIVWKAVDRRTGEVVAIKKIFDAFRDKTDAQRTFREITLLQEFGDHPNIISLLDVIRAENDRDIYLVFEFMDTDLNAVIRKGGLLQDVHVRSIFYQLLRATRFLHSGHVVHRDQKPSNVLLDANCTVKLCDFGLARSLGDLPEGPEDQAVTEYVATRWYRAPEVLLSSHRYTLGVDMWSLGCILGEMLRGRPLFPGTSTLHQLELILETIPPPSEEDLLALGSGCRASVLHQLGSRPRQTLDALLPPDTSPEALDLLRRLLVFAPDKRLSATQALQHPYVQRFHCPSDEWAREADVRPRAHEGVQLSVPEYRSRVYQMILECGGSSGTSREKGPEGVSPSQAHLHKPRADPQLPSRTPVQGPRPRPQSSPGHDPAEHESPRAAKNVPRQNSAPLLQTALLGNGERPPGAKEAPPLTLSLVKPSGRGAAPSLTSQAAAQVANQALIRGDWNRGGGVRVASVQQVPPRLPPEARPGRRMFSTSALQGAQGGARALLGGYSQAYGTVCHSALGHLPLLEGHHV

[4] = biological target: MSSK1 (Homo sapiens, UniProt Q9UPE1)
[5] = biological target: PIM1 (Homo sapiens, UniProt P11309)
Chain of PIM1 (P11309 whole entry): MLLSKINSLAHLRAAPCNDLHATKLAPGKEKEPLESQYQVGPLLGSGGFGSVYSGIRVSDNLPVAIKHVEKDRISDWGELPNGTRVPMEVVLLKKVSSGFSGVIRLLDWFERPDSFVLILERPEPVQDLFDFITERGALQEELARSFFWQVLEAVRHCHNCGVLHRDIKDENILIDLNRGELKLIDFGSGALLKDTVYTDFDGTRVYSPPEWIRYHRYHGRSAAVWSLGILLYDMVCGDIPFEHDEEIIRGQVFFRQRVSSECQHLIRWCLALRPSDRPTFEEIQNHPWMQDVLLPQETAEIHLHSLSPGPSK

[6] = biological target: Erk2 (Homo sapiens, UniProt P28482)
Chain of Erk2 (P28482 whole entry): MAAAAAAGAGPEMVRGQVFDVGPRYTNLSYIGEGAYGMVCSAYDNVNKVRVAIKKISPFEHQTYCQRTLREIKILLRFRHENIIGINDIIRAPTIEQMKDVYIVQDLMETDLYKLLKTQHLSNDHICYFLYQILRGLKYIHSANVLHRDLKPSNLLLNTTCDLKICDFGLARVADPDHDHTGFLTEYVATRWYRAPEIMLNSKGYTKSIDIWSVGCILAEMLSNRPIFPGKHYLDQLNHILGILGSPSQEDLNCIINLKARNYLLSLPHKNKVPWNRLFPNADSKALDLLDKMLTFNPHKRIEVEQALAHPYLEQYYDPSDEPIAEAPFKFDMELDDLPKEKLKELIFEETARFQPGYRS

[7] = biological target: CaMK1g (Homo sapiens, UniProt Q96NX5)
[8] = biological target: MSK1b (Homo sapiens, UniProt O75582)
Chain of MSK1b (O75582 whole entry): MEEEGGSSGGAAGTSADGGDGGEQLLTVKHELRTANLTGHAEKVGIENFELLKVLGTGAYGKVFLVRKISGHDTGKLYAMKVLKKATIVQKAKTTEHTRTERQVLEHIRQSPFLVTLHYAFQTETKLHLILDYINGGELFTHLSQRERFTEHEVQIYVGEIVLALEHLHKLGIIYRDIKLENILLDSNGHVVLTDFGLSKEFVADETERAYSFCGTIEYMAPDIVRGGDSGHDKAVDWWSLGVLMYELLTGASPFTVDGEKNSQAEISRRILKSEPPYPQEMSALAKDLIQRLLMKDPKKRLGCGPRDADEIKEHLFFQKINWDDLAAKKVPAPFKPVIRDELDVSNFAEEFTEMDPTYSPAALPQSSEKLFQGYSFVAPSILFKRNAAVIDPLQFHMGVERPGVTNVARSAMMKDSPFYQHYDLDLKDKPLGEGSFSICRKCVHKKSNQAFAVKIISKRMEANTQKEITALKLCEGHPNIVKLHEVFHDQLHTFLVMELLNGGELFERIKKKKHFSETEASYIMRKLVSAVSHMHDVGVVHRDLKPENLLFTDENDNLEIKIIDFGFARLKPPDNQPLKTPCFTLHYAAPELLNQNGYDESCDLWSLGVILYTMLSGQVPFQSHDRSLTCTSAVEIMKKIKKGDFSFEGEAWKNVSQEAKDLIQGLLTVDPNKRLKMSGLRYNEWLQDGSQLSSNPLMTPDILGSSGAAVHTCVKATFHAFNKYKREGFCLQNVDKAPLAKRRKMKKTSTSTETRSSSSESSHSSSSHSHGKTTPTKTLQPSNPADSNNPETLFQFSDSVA

[9] = biological target: FGFR1 (Homo sapiens, UniProt P11362)
Chain of FGFR1 (P11362 whole entry): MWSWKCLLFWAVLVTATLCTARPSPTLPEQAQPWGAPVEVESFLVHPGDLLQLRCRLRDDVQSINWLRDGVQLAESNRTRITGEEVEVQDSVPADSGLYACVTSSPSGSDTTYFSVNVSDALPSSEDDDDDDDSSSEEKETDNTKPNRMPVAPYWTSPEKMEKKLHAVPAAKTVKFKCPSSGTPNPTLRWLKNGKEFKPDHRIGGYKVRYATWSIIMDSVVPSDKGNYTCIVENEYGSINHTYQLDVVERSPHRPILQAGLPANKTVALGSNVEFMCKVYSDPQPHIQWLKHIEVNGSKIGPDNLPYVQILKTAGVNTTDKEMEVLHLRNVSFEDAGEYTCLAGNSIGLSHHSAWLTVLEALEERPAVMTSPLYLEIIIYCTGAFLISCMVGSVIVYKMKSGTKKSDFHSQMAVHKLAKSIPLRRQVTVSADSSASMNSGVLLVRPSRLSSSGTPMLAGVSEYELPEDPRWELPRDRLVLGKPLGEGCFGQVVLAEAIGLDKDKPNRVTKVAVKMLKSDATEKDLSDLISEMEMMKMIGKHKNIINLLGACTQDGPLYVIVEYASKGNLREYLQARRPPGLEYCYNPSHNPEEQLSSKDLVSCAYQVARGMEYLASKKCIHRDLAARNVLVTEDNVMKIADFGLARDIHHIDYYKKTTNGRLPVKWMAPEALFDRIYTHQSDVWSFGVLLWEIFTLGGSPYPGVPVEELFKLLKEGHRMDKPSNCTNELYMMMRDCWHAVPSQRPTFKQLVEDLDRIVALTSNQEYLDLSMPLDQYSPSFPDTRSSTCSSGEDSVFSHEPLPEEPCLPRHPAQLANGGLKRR

[10] = biological target: DAPK1 (Homo sapiens, UniProt P53355)
Chain of DAPK1 (P53355 whole entry): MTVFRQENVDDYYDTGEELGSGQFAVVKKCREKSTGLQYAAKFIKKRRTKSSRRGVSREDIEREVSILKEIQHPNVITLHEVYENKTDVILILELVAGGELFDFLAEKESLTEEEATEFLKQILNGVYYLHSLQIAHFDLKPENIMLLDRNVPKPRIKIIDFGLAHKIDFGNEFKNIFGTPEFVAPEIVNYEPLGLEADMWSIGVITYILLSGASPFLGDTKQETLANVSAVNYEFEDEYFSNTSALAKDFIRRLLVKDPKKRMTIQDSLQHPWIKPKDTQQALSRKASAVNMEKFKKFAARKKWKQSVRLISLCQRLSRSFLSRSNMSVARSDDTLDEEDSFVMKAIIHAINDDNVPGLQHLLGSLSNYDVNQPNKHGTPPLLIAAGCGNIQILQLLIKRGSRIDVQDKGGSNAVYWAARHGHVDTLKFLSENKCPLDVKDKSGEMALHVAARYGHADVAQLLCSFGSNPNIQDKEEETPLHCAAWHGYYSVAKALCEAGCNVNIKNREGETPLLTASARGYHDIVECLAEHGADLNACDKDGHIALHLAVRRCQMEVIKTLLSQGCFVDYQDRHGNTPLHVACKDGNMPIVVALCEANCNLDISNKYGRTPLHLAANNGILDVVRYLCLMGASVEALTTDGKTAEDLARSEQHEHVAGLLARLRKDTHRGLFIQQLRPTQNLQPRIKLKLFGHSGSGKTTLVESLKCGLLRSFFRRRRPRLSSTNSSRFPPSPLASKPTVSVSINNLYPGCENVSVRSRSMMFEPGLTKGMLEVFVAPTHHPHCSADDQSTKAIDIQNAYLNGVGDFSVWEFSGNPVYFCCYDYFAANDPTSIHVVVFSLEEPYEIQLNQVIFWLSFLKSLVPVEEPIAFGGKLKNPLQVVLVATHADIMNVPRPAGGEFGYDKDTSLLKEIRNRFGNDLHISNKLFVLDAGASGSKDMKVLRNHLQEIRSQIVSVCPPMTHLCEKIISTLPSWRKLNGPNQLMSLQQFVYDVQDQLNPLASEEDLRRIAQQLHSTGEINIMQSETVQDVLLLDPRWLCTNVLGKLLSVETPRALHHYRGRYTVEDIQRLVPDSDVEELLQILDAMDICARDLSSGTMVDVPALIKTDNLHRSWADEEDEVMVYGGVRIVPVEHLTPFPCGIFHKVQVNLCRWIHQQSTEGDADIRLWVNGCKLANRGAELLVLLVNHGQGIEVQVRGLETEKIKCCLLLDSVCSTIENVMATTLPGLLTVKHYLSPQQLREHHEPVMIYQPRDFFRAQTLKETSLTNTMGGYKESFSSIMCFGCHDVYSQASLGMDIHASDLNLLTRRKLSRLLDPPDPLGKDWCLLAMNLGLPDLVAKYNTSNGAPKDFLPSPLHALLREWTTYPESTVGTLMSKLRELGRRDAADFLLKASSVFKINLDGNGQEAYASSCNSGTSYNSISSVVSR

[11] = biological target: NDR2 (Homo sapiens, UniProt Q9Y2H1)
Chain of NDR2 (Q9Y2H1 whole entry): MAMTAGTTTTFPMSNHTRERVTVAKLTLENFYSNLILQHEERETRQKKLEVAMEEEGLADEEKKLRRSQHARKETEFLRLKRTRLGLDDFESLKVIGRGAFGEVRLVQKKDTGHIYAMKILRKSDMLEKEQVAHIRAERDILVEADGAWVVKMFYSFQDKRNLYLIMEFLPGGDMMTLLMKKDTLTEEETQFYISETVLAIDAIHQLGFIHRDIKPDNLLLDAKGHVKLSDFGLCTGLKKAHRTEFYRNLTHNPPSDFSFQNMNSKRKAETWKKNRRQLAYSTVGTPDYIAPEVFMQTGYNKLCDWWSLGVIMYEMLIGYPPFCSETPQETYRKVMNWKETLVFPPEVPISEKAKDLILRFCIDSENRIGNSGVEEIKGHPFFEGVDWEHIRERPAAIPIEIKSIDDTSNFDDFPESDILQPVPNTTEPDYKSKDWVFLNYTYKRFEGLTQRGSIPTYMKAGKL

[12] = biological target: MARK3 (Homo sapiens, UniProt P27448)
Chain of MARK3 (P27448 whole entry): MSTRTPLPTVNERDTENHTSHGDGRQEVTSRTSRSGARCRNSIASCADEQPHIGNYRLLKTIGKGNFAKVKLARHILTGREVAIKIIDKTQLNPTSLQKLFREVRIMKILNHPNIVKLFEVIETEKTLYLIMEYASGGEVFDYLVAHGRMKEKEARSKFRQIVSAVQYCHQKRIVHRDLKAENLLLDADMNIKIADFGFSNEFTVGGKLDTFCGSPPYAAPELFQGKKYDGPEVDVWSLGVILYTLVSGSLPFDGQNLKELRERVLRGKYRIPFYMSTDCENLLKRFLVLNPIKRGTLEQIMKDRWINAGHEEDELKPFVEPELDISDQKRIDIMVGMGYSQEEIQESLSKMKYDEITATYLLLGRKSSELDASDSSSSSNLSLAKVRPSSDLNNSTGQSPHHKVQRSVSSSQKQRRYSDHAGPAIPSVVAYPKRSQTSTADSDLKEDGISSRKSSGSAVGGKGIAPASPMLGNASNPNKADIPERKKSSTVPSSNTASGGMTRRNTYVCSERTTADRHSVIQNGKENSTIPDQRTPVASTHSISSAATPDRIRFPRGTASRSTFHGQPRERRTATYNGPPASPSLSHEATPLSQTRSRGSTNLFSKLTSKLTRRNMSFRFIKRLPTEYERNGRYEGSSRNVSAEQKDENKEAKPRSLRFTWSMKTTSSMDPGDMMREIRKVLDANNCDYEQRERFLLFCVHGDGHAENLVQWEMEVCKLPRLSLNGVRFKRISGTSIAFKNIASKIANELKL

SMILES: Cc1cccc(-c2ccc(-c3cc4cnc(Nc5ccc(C)c(O)c5)nc4n(CCCCN)c3=O)c(Cl)c2)n1 [compound 32, 8-(4-Aminobutyl)-6-(2-chloro-4-(6-methylpyridin-2-yl)phenyl)-2-((3-hydroxy-4-methylphenyl)amino)pyrido[2,3-d]pyrimidin-7(8H)-one]
ΔTm 32 [2]: 6.8 °C
ΔTm 32 [3]: 1.0 °C
ΔTm 32 [4]: -0.2 °C
ΔTm 32 [5]: 1.2 °C
ΔTm 32 [6]: 1.9 °C
ΔTm 32 [7]: 6.4 °C
ΔTm 32 [8]: 4.6 °C
ΔTm 32 [9]: 2.0 °C
ΔTm 32 [10]: -0.9 °C
ΔTm 32 [11]: 10.1 °C
ΔTm 32 [12]: 10.9 °C

SMILES: Cc1cccc(-c2ccc(-c3cc4cnc(NCCCc5ccc(N)cc5)nc4n(CCCCN)c3=O)c(Cl)c2)n1 [compound 25, 8-(4-Aminobutyl)-2-((3-(4-aminophenyl)propyl)amino)-6-(2-chloro-4-(6-methylpyridin-2-yl)phenyl)pyrido[2,3-d]pyrimidin-7(8H)-one]
ΔTm 25 [1]: -0.2 °C

SMILES: Cc1cccc(-c2ccc(-c3cc4cnc(Nc5ccc(O)cc5)nc4n(CCCCN)c3=O)c(Cl)c2)n1 [compound 31, 8-(4-Aminobutyl)-6-(2-chloro-4-(6-methylpyridin-2-yl)phenyl)-2-((4-hydroxyphenyl)amino) pyrido[2,3-d]pyrimidin-7(8H)-one]
ΔTm 31 [2]: 5.2 °C
ΔTm 31 [3]: 1.4 °C
ΔTm 31 [4]: 0.0 °C
ΔTm 31 [5]: 3.7 °C
ΔTm 31 [6]: 1.3 °C
ΔTm 31 [7]: 5.5 °C
ΔTm 31 [8]: 4.3 °C
ΔTm 31 [9]: 1.5 °C
ΔTm 31 [10]: -0.6 °C
ΔTm 31 [11]: 9.9 °C
ΔTm 31 [12]: 10.9 °C

SMILES: Cc1cccc(-c2ccc(-c3cc4cnc(Nc5cc(C(F)(F)F)ccc5C)nc4n(CCCCN)c3=O)c(Cl)c2)n1 [compound 28, 8-(4-Aminobutyl)-6-(2-chloro-4-(6-methylpyridin-2-yl)phenyl)-2-((2-methyl-5-(trifluoromethyl)phenyl)amino)pyrido[2,3-d]pyrimidin-7(8H)-one]
ΔTm 28 [2]: 2.4 °C
ΔTm 28 [3]: 0.5 °C
ΔTm 28 [4]: -0.9 °C
ΔTm 28 [5]: 0.5 °C
ΔTm 28 [6]: 0.7 °C
ΔTm 28 [7]: 5.7 °C
ΔTm 28 [8]: 1.4 °C
ΔTm 28 [9]: 1.1 °C
ΔTm 28 [10]: -0.7 °C
ΔTm 28 [11]: 7.1 °C
ΔTm 28 [12]: 3.8 °C

SMILES: Cc1cccc(-c2ccc(-c3cc4cnc(NCCCN5CCOCC5)nc4n(CCCCN)c3=O)c(Cl)c2)n1 [compound 26, MR26]
ΔTm MR26 (26) [1]: -0.2 °C

SMILES: Cc1cccc(-c2ccc(-c3cc4cnc(Nc5ccc(CCCO)cc5)nc4n(CCCCN)c3=O)c(Cl)c2)n1 [compound 30, 8-(4-Aminobutyl)-6-(2-chloro-4-(6-methylpyridin-2-yl)phenyl)-2-((4-(3-hydroxypropyl)phenyl)amino)pyrido[2,3-d]pyrimidin-7(8H)-one]
ΔTm 30 [2]: 7.5 °C
ΔTm 30 [3]: 1.2 °C
ΔTm 30 [4]: -0.2 °C
ΔTm 30 [5]: -0.4 °C
ΔTm 30 [6]: 3.5 °C
ΔTm 30 [7]: 7.5 °C
ΔTm 30 [8]: 3.6 °C
ΔTm 30 [9]: 1.0 °C
ΔTm 30 [10]: -0.7 °C
ΔTm 30 [11]: 10.7 °C
ΔTm 30 [12]: 11.6 °C

Continued, in another order:

ΔTm MRLW5 (20) [1]: -0.1 °C
SMILES: CNc1ncc2cc(-c3ccc(-c4cccc(C)n4)cc3Cl)c(=O)n(CCCCN)c2n1 [compound 20, MRLW5]

ΔTm MR24 (24) [1]: -0.1 °C
SMILES: Cc1cccc(-c2ccc(-c3cc4cnc(NC(CO)CO)nc4n(CCCCN)c3=O)c(Cl)c2)n1 [compound 24, 8-(4-Aminobutyl)-6-(2-chloro-4-(6-methylpyridin-2-yl)phenyl)-2-((1,3-dihydroxypropan-2-yl)amino)pyrido[2,3-d]pyrimidin-7(8H)-one]

ΔTm 23 [1]: -0.7 °C
SMILES: CNc1ncc2cc(-c3ccc(-c4cccc(C)n4)cc3Cl)c(=O)n(C[C@H]3CC[C@H](N)CC3)c2n1 [compound 23, 23]

ΔTm MR30 (27) [2]: 0.5 °C
ΔTm MR30 (27) [4]: -0.4 °C
ΔTm MR30 (27) [5]: -0.5 °C
ΔTm MR30 (27) [6]: 0.4 °C
ΔTm MR30 (27) [7]: 3.6 °C
ΔTm MR30 (27) [8]: -1.4 °C
ΔTm MR30 (27) [9]: 0.2 °C
ΔTm MR30 (27) [10]: -1.2 °C
ΔTm MR30 (27) [11]: 1.5 °C
ΔTm MR30 (27) [12]: 4.7 °C
SMILES: Cc1cccc(-c2ccc(-c3cc4cnc(NCCCN5CCCC5=O)nc4n(CCCCN)c3=O)c(Cl)c2)n1 [compound 27, MR30]
ΔTm MR30 (27) [3]: -0.4 °C

ΔTm 22 [1]: -0.3 °C
SMILES: CNc1ncc2cc(-c3ccc(-c4cccc(C)n4)cc3Cl)c(=O)n(CCC3CCNCC3)c2n1 [compound 22, 6-(2-Chloro-4-(6-methylpyridin-2-yl)phenyl)-2-(methylamino)-8-(2-(piperidin-4-yl)ethyl)pyrido[2,3-d]pyrimidin-7(8H)-one]

ΔTm 29 [2]: 0.7 °C
ΔTm 29 [4]: -0.3 °C
ΔTm 29 [5]: 0.6 °C
ΔTm 29 [6]: -0.4 °C
ΔTm 29 [7]: 5.0 °C
ΔTm 29 [8]: 0.2 °C
ΔTm 29 [9]: 0.7 °C
ΔTm 29 [10]: -0.9 °C
ΔTm 29 [11]: 4.9 °C
ΔTm 29 [12]: 5.8 °C
SMILES: Cc1cccc(-c2ccc(-c3cc4cnc(NCCCN5CCNCC5)nc4n(CCCCN)c3=O)c(Cl)c2)n1 [compound 29, 8-(4-Aminobutyl)-6-(2-chloro-4-(6-methylpyridin-2-yl)phenyl)-2-((3-(piperazin-1-yl)propyl)amino)pyrido[2,3-d]pyrimidin-7(8H)-one]
ΔTm 29 [3]: 0.1 °C
